Measured values taken from US20110098242A1, “Methods and Compositions for Diagnosing and Treating Cervical Intraepithelial Neoplasia and Cervical Cancer” (priority 2008, published 2011).

Key:
Type in all cases: cell-based, human
cystatin E/M gene = test: RT PCR analysis of cystatin E/M expression in treated SiHa cells
cystatin E/M [1] = test: Immunofluorescence of cystatin E/M protein in treated HeLa cells; conditions: 24 hours post-treatment, 5 μM 5-AzaCdR
From the text: (§1) To verify that cystatin E/M expression was not limited to RNA synthesis and to identify the cellular location of protein expression, immunofluorescence (IF) was used. Cystatin E/M expression was absent in the untreated HeLa cells. […] There was uniform expression in the cytoplasm of all cells. […] Thus, re-expression of the gene by treatment with 5-AzaCdR and TSA in HeLa and SiHa cells, respectively, confirmed promoter methylation and/or histone deacetylation playing a role in the inactivation of cystatin E/M expression in these two cell lines.
(§2) Cells were grown overnight on cover slips to semiconfluency (about 70 to 80%) and treated with 5- AzaCdR or TSA, or transfected with plasmid DNAs. Immunofluorescence was performed using the anti cystatin E/M antibody (R & D Systems, Minneapolis, Minn.) following an established protocol. See LoTempio et al. (2005).

[2] = system: cystatin E/M gene promoter; test: Sodium bisulfite PCR and sequencing of cystatin E/M promoter CpG methylation in HeLa cells; conditions: HeLa cells after treatment with 5-AzaCdR
Procedure: Having established the promoter activity, four different cell lines and 18 primary tumors were examined for CpG methylation using the sodium bisulfite protocol. Normal endometrium from 16 of the tumors, four different non-involved normal lymphocytes and a lung tissue were used as controls. The analysis was performed using the sequences spanning the −14 to −151 by region of the promoter (NT—033903.7). […] Untreated HeLa cells yielded the 138 by product with the methylation specific PCR. Cell lines Caski, C41, C33A, three of 21 normal tissues (14%) and 7 of 16 tumors (44%) gave the PCR product with both the unmethylation and methylation specific PCRs. Five other tumors (31%) contained only the methlyation specific product. Thus, there was a significant frequency of methylated promoter in the cervical tumors ([…] in tumors versus 3 of 21, 14% in normals, P<0.01, Student's t-test). Methylation in the three normal endometrial tissues could also represent tumor cell contamination. Four of the tumors contained methylation and point mutation (Table 1, FIG. 4A) indicating possible two hits for the functional inactivation of the cystatin E/M gene.
To confirm promoter hypermethylation in the cell lines, sequencing was carried out on the PCR products cloned into the pTOPO plasmid vector. […]

cystatin E/M [3] = test: Immunofluorescence of cystatin E/M protein in treated SiHa cells; conditions: TSA treatment
From the text: as §1, §2

Row | SMILES | cystatin E/M RNA expression (cystatin E/M gene; 5 μM and 10 μM 5-AzaCdR) | cystatin E/M RNA expression (cystatin E/M gene; 50 μM 5-AzaCdR) | cystatin E/M protein expression by immunofluorescence (cystatin E/M [1]) | methylation of C residues in promoter CpG sequences [2] | cystatin E/M RNA expression (cystatin E/M gene; TSA 150 μM) | cystatin E/M protein expression by immunofluorescence (cystatin E/M [3])
1 | Nc1ncn([C@H]2C[C@H](O)[C@@H](CO)O2)c(=O)n1 [5-AzaCdR, 5′Aza 2-deoxycytidine] | did not show expression | low level expression | cystatin E/M expression was observed | demethylation of the C residues |  | 
2 | CC(/C=C/C(=O)NO)=C\[C@@H](C)C(=O)c1ccc(N(C)C)cc1 [TSA, Trichostatin A] |  |  |  |  | High level RNA expression | uniform cytoplasmic protein expression
